From ChEMBL document CHEMBL4265942, “Four new antitumor metabolites isolated from a mutant 3-f-31 strain derived from Penicillium purpurogenum G59” (Eur J Med Chem, 2018)

Legend:
[1] = system: A549; assay: Antiproliferative activity against human A549 cells assessed as inhibition of cell growth at 100 uM after 72 hrs by sulforhodamine B assay relative to control; type: functional; conditions: A549, 72 h
[2] = system: PANC-1; assay: Antiproliferative activity against human PANC1 cells assessed as inhibition of cell growth at 100 uM after 72 hrs by sulforhodamine B assay relative to control; type: functional; conditions: PANC-1, 72 h
[3] = system: LS180; assay: Antiproliferative activity against human LS180 cells assessed as inhibition of cell growth at 100 uM after 72 hrs by sulforhodamine B assay relative to control; type: functional; conditions: LS180, 72 h
[4] = system: HT-29; assay: Antiproliferative activity against human HT-29 cells assessed as inhibition of cell growth at 100 uM after 72 hrs by sulforhodamine B assay relative to control; type: functional; conditions: HT-29, 72 h
[5] = system: PC-3; assay: Antiproliferative activity against human PC3 cells assessed as inhibition of cell growth at 100 uM after 72 hrs by sulforhodamine B assay relative to control; type: functional; conditions: PC-3, 72 h
[6] = system: HeLa; assay: Antiproliferative activity against human HeLa cells assessed as inhibition of cell growth at 100 uM after 72 hrs by sulforhodamine B assay relative to control; type: functional
[7] = system: SW480; assay: Antiproliferative activity against human SW480 cells assessed as inhibition of cell growth at 100 uM after 72 hrs by sulforhodamine B assay relative to control; type: functional; conditions: SW480, 72 h
[8] = system: HCT-116; assay: Antiproliferative activity against human HCT116 cells assessed as inhibition of cell growth at 100 uM after 72 hrs by sulforhodamine B assay relative to control; type: functional; conditions: HCT-116, 72 h
[9] = system: HepG2; assay: Antiproliferative activity against human HepG2 cells assessed as inhibition of cell growth at 100 uM after 72 hrs by sulforhodamine B assay relative to control; type: functional; conditions: HepG2, 72 h
[10] = system: HL-60; assay: Antiproliferative activity against human HL60 cells assessed as inhibition of cell growth at 100 uM after 72 hrs by MTT assay relative to control; type: functional; conditions: HL-60, 72 h
[11] = system: BXPC-3; assay: Antiproliferative activity against human BxPC3 cells assessed as inhibition of cell growth at 100 uM after 72 hrs by sulforhodamine B assay relative to control; type: functional; conditions: BXPC-3, 72 h
[12] = system: K562; assay: Antiproliferative activity against human K562 cells assessed as inhibition of cell growth at 100 uM after 72 hrs by MTT assay relative to control; type: functional; conditions: K562, 72 h
[13] = system: MCF7; assay: Antiproliferative activity against human MCF7 cells assessed as inhibition of cell growth at 100 uM after 72 hrs by sulforhodamine B assay relative to control; type: functional; conditions: MCF7, 72 h
[14] = system: NCI-H1975; assay: Antiproliferative activity against human NCI-H1975 cells assessed as inhibition of cell growth at 100 uM after 72 hrs by sulforhodamine B assay relative to control; type: functional; conditions: NCI-H1975, 72 h
[15] = system: HT-29; assay: Antiproliferative activity against human HT-29 cells assessed as inhibition of cell growth after 72 hrs by sulforhodamine B assay; type: functional, cell-based; conditions: HT-29, 72 h
[16] = system: K562; assay: Antiproliferative activity against human K562 cells assessed as inhibition of cell growth after 72 hrs by MTT assay; type: functional, cell-based; conditions: K562, 72 h
[17] = system: L929; assay: Cytotoxicity against mouse L929 cells assessed as inhibition of cell growth after 72 hrs by MTT assay; type: cell-based; conditions: L929, 72 h
[18] = system: PANC-1; assay: Antiproliferative activity against human PANC1 cells assessed as inhibition of cell growth after 72 hrs by sulforhodamine B assay; type: functional, cell-based; conditions: PANC-1, 72 h
[19] = system: HCT-116; assay: Antiproliferative activity against human HCT116 cells assessed as inhibition of cell growth after 72 hrs by sulforhodamine B assay; type: functional, cell-based; conditions: HCT-116, 72 h
[20] = system: BXPC-3; assay: Antiproliferative activity against human BxPC3 cells assessed as inhibition of cell growth after 72 hrs by sulforhodamine B assay; type: functional, cell-based; conditions: BXPC-3, 72 h
[21] = system: HeLa; assay: Antiproliferative activity against human HeLa cells assessed as inhibition of cell growth after 72 hrs by sulforhodamine B assay; type: functional, cell-based
[22] = system: MCF7; assay: Antiproliferative activity against human MCF7 cells assessed as inhibition of cell growth after 72 hrs by sulforhodamine B assay; type: functional, cell-based; conditions: MCF7, 72 h
[23] = system: A549; assay: Antiproliferative activity against human A549 cells assessed as inhibition of cell growth after 72 hrs by sulforhodamine B assay; type: functional, cell-based; conditions: A549, 72 h
[24] = system: PC-3; assay: Antiproliferative activity against human PC3 cells assessed as inhibition of cell growth after 72 hrs by sulforhodamine B assay; type: functional, cell-based; conditions: PC-3, 72 h
[25] = system: NCI-H1975; assay: Antiproliferative activity against human NCI-H1975 cells assessed as inhibition of cell growth after 72 hrs by sulforhodamine B assay; type: functional, cell-based; conditions: NCI-H1975, 72 h
[26] = system: HepG2; assay: Antiproliferative activity against human HepG2 cells assessed as inhibition of cell growth after 72 hrs by sulforhodamine B assay; type: functional, cell-based; conditions: HepG2, 72 h
[27] = system: LS180; assay: Antiproliferative activity against human LS180 cells assessed as inhibition of cell growth after 72 hrs by sulforhodamine B assay; type: functional, cell-based; conditions: LS180, 72 h
[28] = system: HL-60; assay: Antiproliferative activity against human HL60 cells assessed as inhibition of cell growth after 72 hrs by MTT assay; type: functional, cell-based; conditions: HL-60, 72 h
[29] = system: SW480; assay: Antiproliferative activity against human SW480 cells assessed as inhibition of cell growth after 72 hrs by sulforhodamine B assay; type: functional, cell-based; conditions: SW480, 72 h
[30] = system: HCT-116; assay: Down regulation of Raf1 expression in human HCT116 cells after 48 hrs by Western blot analysis; type: functional, cell-based
[31] = system: HCT-116; assay: Down regulation of HSP90 expression in human HCT116 cells after 48 hrs by Western blot analysis; type: functional, cell-based
[32] = system: HCT-116; assay: Down regulation of AKT expression in human HCT116 cells after 48 hrs by Western blot analysis; type: functional, cell-based
[33] = system: HCT-116; assay: Down regulation of STAT3 expression in human HCT116 cells after 48 hrs by Western blot analysis; type: functional, cell-based
[34] = system: HCT-116; assay: Down regulation of survivin expression in human HCT116 cells after 48 hrs by Western blot analysis; type: functional, cell-based
[35] = system: HCT-116; assay: Down regulation of ERK1/2 expression in human HCT116 cells after 48 hrs by Western blot analysis; type: functional, cell-based
[36] = system: HCT-116; assay: Down regulation of phosphorylated STAT3 expression in human HCT116 cells after 48 hrs by Western blot analysis; type: functional, cell-based

SMILES | IC50 [15] [µM] | IC50 [16] [µM] | IC50 [17] [µM] | IC50 [18] [µM] | IC50 [19] [µM] | IC50 [20] [µM] | IC50 [21] [µM] | IC50 [22] [µM] | IC50 [23] [µM] | IC50 [24] [µM] | IC50 [25] [µM] | IC50 [26] [µM] | IC50 [27] [µM] | IC50 [28] [µM] | IC50 [29] [µM] | also measured
O=c1[nH]cc(F)c(=O)[nH]1 [FLUOROURACIL] |  |  |  |  |  |  |  |  |  |  |  |  |  |  |  | inhibition at 100 µM [1]: 41 to 95%; inhibition at 100 µM [2]: 41 to 95%; inhibition at 100 µM [3]: 41 to 95%; inhibition at 100 µM [4]: 41 to 95%; inhibition at 100 µM [5]: 41 to 95%; inhibition at 100 µM [6]: 41 to 95%; inhibition at 100 µM [7]: 41 to 95%; inhibition at 100 µM [8]: 41 to 95%; inhibition at 100 µM [9]: 41 to 95%; inhibition at 100 µM [10]: 41 to 95%; inhibition at 100 µM [11]: 41 to 95%; inhibition at 100 µM [12]: 41 to 95%; inhibition at 100 µM [13]: 41 to 95%; inhibition at 100 µM [14]: 41 to 95%
CCCCCC[C@@H](C)C[C@@H](C)/C=C/C(=O)N[C@H]1C[C@@]2(O[C@@H]1OC)[C@@H]1O[C@@H]1[C@](O)(CC(C)=O)[C@@H]1O[C@@H]12 | 9.85 | 6.46 | 3.69 | 5.77 | 2.61 | 10.5 | 8.65 | 4.06 | 14.8 | 6.33 | 4.77 | 9.58 | 13.9 | 10.8 | 3.85 | 
CCCCCC[C@@H](C)C[C@@H](C)/C=C/C(=O)N[C@@H]1C[C@@]2(O[C@@H]1O)[C@@H]1O[C@@H]1[C@](O)(CC(C)=O)[C@@H]1O[C@@H]12 | 10.2 | 5.16 | 4.68 | 4.42 | 2.54 | 7.3 | 6.25 | 4.11 | 9.83 | 7.6 | 3.37 | 6.58 | 17 | 3.13 | 3.57 | Activity [30]: Dose-dependent effect; Activity [31]: Dose-dependent effect; Activity [32]: Dose-dependent effect; Activity [33]: Dose-dependent effect; Activity [34]: Dose-dependent effect; Activity [35]: Dose-dependent effect; Activity [36]: Dose-dependent effect
